{"source": "patent US4292313A", "about": "“LRF Antagonists” (The Salk Institute for Biological Studies, priority 1980, dated 1981)", "origin": "cited, not measured here", "system": "pituitary gland", "conditions": "versus 6-Gly des-His2 analog", "note": "[ ]: non-standard residue; d: D form. pGlu = O=C1CC[C@@H](C(=O)O)N1"}
{"substance": "[pGlu]WSY[dA]LRPG-NH2", "values": [{"measurement": "Potency as inhibitor of release of gonadotropins relative to the same peptide with Gly in the 6-position", "result": 3, "unit": "times"}]}
